# Reference: patent US7803778B2, “Glucose transport inhibitors and methods of use” (Theracos, Inc., priority 2006, dated 2010)
# Like-named read-outs stand apart in the source and are kept apart here.
# Experiments:
# human SGLT1 = molecular target: T1, human SGLT1 (Homo sapiens, UniProt P13866); assay: Methyl-α-D-[U-14C]glucopyranoside uptake assay, SGLT1; assay type: cell-based; conditions: COS-7 cells transfected with human SGLT1; sodium-dependent uptake, 2 h incubation
# T1 construct: Full-length human SGLT1 cDNA on pDream2.1 expression vector; host or cells: COS-7 cells
# T1 sequence (P13866 1-664): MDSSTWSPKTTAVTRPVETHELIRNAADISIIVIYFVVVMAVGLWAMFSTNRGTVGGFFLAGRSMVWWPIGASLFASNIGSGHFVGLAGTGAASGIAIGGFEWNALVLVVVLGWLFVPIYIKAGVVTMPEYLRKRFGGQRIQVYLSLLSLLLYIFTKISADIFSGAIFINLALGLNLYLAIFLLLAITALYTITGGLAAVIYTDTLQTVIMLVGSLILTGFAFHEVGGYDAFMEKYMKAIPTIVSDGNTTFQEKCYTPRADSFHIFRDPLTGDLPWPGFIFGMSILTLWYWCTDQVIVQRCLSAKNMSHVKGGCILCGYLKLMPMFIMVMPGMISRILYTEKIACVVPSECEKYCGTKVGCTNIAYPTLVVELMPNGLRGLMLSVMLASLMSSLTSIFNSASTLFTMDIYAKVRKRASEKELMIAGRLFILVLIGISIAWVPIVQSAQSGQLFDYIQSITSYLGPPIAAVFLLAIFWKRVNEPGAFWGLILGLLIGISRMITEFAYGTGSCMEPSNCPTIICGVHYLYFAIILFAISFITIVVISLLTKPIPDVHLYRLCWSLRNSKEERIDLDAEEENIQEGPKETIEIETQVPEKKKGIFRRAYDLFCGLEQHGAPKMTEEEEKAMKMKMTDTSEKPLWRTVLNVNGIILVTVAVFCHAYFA
# Method: Full-length human SGLT1 cDNA on pDream2.1 expression vector was obtained from GenScript Corporation and propagated in Escherichia coli strain DH5α using Luria-Bertani (LB) medium containing ampicillin. Plasmid DNA was isolated using the QIAGEN Plasmid Midi Kit (QIAGEN Inc.). […] Transfected cells were stored in DMEM containing 10% dimethyl sulfoxide (DMSO) at −80° C.
# (§1) Cells expressing SGLT1 or SGLT2 were seeded on 96-well ScintiPlate scintillating plates (PerkinElmer, Inc.) in DMEM containing 10% FBS (1×10^5 cells per well in 100 μl medium) incubated at 37° C. under 5% CO2 for 48 h prior to the assay. Cells were washed twice with 150 μl of either sodium buffer (137 mM NaCl, 5.4 mM KCl, 2.8 mM CaCl2, 1.2 mM MgCl2, 10 mM tris(hydroxymethyl)aminomethane/N-2-hydroxyethylpiperazine-N′-ethanesulfonic acid [Tris/Hepes], pH 7.2) or sodium-free buffer (137 mM N-methyl-glucamine, 5.4 mM KCl, 2.8 mM CaCl2, 1.2 mM MgCl2, 10 mM Tris/Hepes, pH 7.2). Test compound in 50 μl each of sodium or sodium-free buffer containing 40 μCi/ml methyl-α-D-[U-^14C]glucopyranoside (Amersham Biosciences/GE Healthcare) was added per well of a 96-well plate and incubated at 37° C. with shaking for either 2 h (SGLT1 assay) or 1.5 h (SGLT2 assay). Cells were washed twice with 150 μl of wash buffer (137 mM N-methylglucamine, 10 mM Tris/Hepes, pH 7.2) and methyl-α-D-[U-^14C]glucopyranoside uptake was quantitated using a TopCount scintillation counter (PerkinElmer, Inc.). Sodium-dependent glucopyranoside uptake was measured by subtracting the values obtained with sodium-free buffer from those obtained using sodium buffer (average of triplicate determinations).
# human SGLT2 = molecular target: T2, human SGLT2 (Homo sapiens, UniProt P31639); assay: Methyl-α-D-[U-14C]glucopyranoside uptake assay, SGLT2; assay type: cell-based; conditions: HEK293.ETN cells stably expressing human SGLT2, sodium-dependent uptake, 1.5 h incubation
# T2 construct: A full-length cDNA clone expressing human SGLT2
# T2 sequence (P31639 1-672): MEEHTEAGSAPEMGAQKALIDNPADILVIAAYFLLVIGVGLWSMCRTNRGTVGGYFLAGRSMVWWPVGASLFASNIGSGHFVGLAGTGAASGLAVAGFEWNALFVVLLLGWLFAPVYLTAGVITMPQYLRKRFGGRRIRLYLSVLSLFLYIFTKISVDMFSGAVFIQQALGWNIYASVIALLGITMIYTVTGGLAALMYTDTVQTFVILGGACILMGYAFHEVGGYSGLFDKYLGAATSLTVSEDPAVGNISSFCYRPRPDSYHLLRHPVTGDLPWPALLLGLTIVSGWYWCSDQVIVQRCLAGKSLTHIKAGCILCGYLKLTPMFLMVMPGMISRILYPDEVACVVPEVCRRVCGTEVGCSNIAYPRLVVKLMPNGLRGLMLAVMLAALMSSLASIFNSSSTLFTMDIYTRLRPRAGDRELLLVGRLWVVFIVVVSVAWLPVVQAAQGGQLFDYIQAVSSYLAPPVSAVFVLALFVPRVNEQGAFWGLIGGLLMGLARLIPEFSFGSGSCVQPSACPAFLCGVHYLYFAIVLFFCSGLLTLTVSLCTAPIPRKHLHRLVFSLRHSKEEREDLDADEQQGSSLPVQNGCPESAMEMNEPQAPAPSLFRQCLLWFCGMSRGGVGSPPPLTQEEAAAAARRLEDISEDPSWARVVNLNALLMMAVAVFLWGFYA
# Description: A full-length cDNA clone expressing human SGLT2 (GenScript Corporation) was subcloned into Hind III and Not I sites of pEAK15 expression vector. Clones harboring the cDNA inserts were identified by restriction analysis.
# Plasmid containing human SGLT2 was linearized with Nsi I and purified by agarose gel electrophoresis. Using Lipofectamine 2000 Transfection Reagent (Invitrogen Corporation), DNA was transfected into HEK293.ETN cells and cultured in Dulbecco's Modified Eagle Medium (DMEM) containing 10% fetal bovine serum (FBS) at 37° C. under 5% CO2 for 24 h. Transfectants were selected in the same growth medium supplemented with puromycin (Invitrogen Corporation) for two weeks. Puromycin-resistant cells were recovered and seeded on a fresh 96-well plate (single cell per well) and cultured in the presence of puromycin until cells became confluent. Puromycin-resistant clones were evaluated for SGLT2 activity in the methyl-α-D-[U-^14C]glucopyranoside uptake assay described below.
# as §1
IC50 (human SGLT1),IC50 (human SGLT2; read-out: IC50 SGLT2),IC50 (human SGLT2; read-out: SGLT2 IC50),Compound
> 10000 nM,< 1000 nM,–,"CCc1ccc(Cc2cc3c(cc2Cl)C(F)C[C@]32O[C@H](CO)[C@@H](O)[C@H](O)[C@H]2O)cc1 (stereo partly drawn) [Compound BE, (1S,3′R,4′S,5′S,6′R)-5-chloro-6-(4-ethylbenzyl)-3-fluoro-6′-(hydroxymethyl)-2,3,3′,4′,5′,6′-hexahydrospiro[indene-1,2′-pyran]-3′,4′,5′-triol]"
< 1000 nM,< 1000 nM,–,"CCc1ccc(Cc2cc3c(cc2Cl)CO[C@]32O[C@H](CO)[C@@H](O)[C@H](O)[C@H]2O)cc1 [Compound K, (1S,3′R,4′S,5′S,6′R)-5-chloro-6-(4-ethylbenzyl)-6′-(hydroxymethyl)-3′,4′,5′,6′-tetrahydro-3H-spiro[isobenzofuran-1,2′-pyran]-3′,4′,5′-triol]"
> 10000 nM,< 1000 nM,–,"OC[C@H]1O[C@]2(CCc3cc(Cl)c(Cc4ccc(O[C@H]5CCOC5)cc4)cc32)[C@H](O)[C@@H](O)[C@@H]1O [Compound BG, (1S,3′R,4′S,5′S,6′R)-5-chloro-6′-(hydroxymethyl)-6-(4-((S)-tetrahydrofuran-3-yloxy)benzyl)-2,3,3′,4′,5′,6′-hexahydrospiro[indene-1,2′-pyran]-3′,4′,5′-triol]"
1000 to 10000 nM,< 1000 nM,–,"CCc1ccc(Cc2cc3c(cc2Cl)CO[C@]32O[C@H](COC(C)=O)[C@@H](O)[C@H](O)[C@H]2O)cc1 [Compound AH, ((1S,3′R,4′S,5′S,6′R)-5-chloro-6-(4-ethylbenzyl)-3′,4′,5′-trihydroxy-3′,4′,5′,6′-tetrahydro-3H-spiro[isobenzofuran-1,2′-pyran]-6′-yl)methyl acetate]"
> 10000 nM,< 1000 nM,–,"CCc1ccc(Cc2cc3c(cc2Cl)CO[C@]32O[C@H](COCC(F)(F)F)[C@@H](O)[C@H](O)[C@H]2O)cc1 [Compound AI, (1S,3′R,4′S,5′S,6′R)-5-chloro-6-(4-ethylbenzyl)-6′-((2,2,2-trifluoroethoxy)methyl)-3′,4′,5′,6′-tetrahydro-3H-spiro[isobenzofuran-1,2′-pyran]-3′,4′,5′-triol]"
> 10000 nM,< 1000 nM,–,"CCc1ccc(Cc2cc3c(cc2Cl)C(O)C[C@]32O[C@H](CO)[C@@H](O)[C@H](O)[C@H]2O)cc1 (stereo partly drawn) [Compound BB, (1S,3′R,4′S,5′S,6′R)-5-chloro-6-(4-ethylbenzyl)-6′-(hydroxymethyl)-2,3,3′,4′,5′,6′-hexahydrospiro[indene-1,2′-pyran]-3,3′,4′,5′-tetraol]"
1000 to 10000 nM,< 1000 nM,–,"CCc1ccc(Cc2cc3c(cc2Cl)CO[C@]32O[C@H](COC)[C@@H](O)[C@H](O)[C@H]2O)cc1 [Compound AG, (1S,3′R,4′S,5′S,6′R)-5-chloro-6-(4-ethylbenzyl)-6′-(methoxymethyl)-3′,4′,5′,6′-tetrahydro-3H-spiro[isobenzofuran-1,2′-pyran]-3′,4′,5′-triol]"
> 10000 nM,< 1000 nM,–,"CCc1ccc(C(=O)c2cc3c(cc2Cl)CO[C@]32O[C@H](CO)[C@@H](O)[C@H](O)[C@H]2O)cc1 [Compound AQ, ((1S,3′R,4′S,5′S,6′R)-5-chloro-3′,4′,5′-trihydroxy-6′-(hydroxymethyl)-3′,4′,5′,6′-tetrahydro-3H-spiro[isobenzofuran-1,2′-pyran]-6-yl)(4-ethylphenyl)methanone]"
1000 to 10000 nM,< 1000 nM,5.1 nM,"CCOc1ccc(Cc2cc3c(cc2Cl)CO[C@]32O[C@H](CO)[C@@H](O)[C@H](O)[C@H]2O)cc1 [Compound H, (1S,3′R,4′S,5′S,6′R)-5-chloro-6-(4-ethoxybenzyl)-6′-(hydroxymethyl)-3′,4′,5′,6′-tetrahydro-3H-spiro[isobenzofuran-1,2′-pyran]-3′,4′,5′-triol]"
1000 to 10000 nM,< 1000 nM,–,"CCc1ccc(Cc2cc3c(cc2Cl)CO[C@]32O[C@H](CNC(C)=O)[C@@H](O)[C@H](O)[C@H]2O)cc1 [Compound AM, N-(((1S,3′R,4′S,5′S,6′R)-5-chloro-6-(4-ethylbenzyl)-3′,4′,5′-trihydroxy-3′,4′,5′,6′-tetrahydro-3H-spiro[isobenzofuran-1,2′-pyran]-6′-yl)methyl)acetamide]"
> 10000 nM,< 1000 nM,–,"CCc1ccc(Cc2cc3c(cc2Cl)C(OC)C[C@]32O[C@H](CO)[C@@H](O)[C@H](O)[C@H]2O)cc1 (stereo partly drawn) [Compound BD, (1S,3′R,4′S,5′S,6′R)-5-chloro-6-(4-ethylbenzyl)-6′-(hydroxymethyl)-3-methoxy-2,3,3′,4′,5′,6′-hexahydrospiro[indene-1,2′-pyran]-3′,4′,5′-triol]"
> 10000 nM,< 1000 nM,–,"CCc1ccc(Cc2cc3c(cc2Cl)C(CCO)C[C@]32O[C@H](CO)[C@@H](O)[C@H](O)[C@H]2O)cc1 (stereo partly drawn) [Compound BA, (1S,3′R,4′S,5′S,6′R)-5-chloro-6-(4-ethylbenzyl)-3-(2-hydroxyethyl)-6′-(hydroxymethyl)-2,3,3′,4′,5′,6′-hexahydrospiro[indene-1,2′-pyran]-3′,4′,5′-triol]"
1000 to 10000 nM,< 1000 nM,–,"CCc1ccc(Cc2cc3c(cc2Cl)CC[C@]32O[C@H](CO)[C@@H](O)[C@H](O)[C@H]2O)cc1 [Compound AV, (1S,3′R,4′S,5′S,6′R)-5-chloro-6-(4-ethylbenzyl)-6′-(hydroxymethyl)-2,3,3′,4′,5′,6′-hexahydrospiro[indene-1,2′-pyran]-3′,4′,5′-triol]"
> 10000 nM,< 1000 nM,71 nM,"CCOc1ccc(Cc2ccc3c(c2)[C@]2(OC3)O[C@H](CO)[C@@H](O)[C@H](O)[C@H]2O)cc1 [Compound G, (1S,3′R,4′S,5′S,6′R)-6-(4-ethoxybenzyl)-6′-(hydroxymethyl)-3′,4′,5′,6′-tetrahydro-3H-spiro[isobenzofuran-1,2′-pyran]-3′,4′,5′-triol]"
